Data set [1] in a line: Solubility of extracts and reference compounds in solvents / assay medium. Format: physicochemical. An excerpt: A 2.5 gram sample of a red raspberry seed extract in a dry powder form was split into two fractions, one combined 1.25 grams of the dry extract with 11.25 grams of water to create a 10% aqueous solution of the extract. […] Combining 1.25 grams of the dry extract with about 11.25 grams of Isopropyl alcohol (91%) produced an about 10% alcohol solution.
Using pure water was explored in extraction experiments with cranberry seed powder. The advantages of using water were essentially zero cost and toxicity. […] The limitations of using water were that it gave quite low yields in extractions at room temperature and only dissolved the most polar compounds from the seed powders, leaving most of the medium polarity materials behind. It is possible that this could be improved by heating. […] Simply filtering the mixture through inexpensive filter paper by gravity or mild vacuum was unsuccessful. One solution that worked was mixing in filtering media (diatomaceous earth) and then vacuum filtering through a bed of the same filtering medium. To completely clarify the mixture, an additional treatment with activated carbon and further vacuum filtering through a bed of diatomaceous earth was effective. Given the limitations of water extraction, it was not used extensively. One exception was the use of sodium hydroxide solutions in water to extract pomegranate seed powder, which contained significant amounts of the targeted compound ellagic acid. […] Therefore, 1 M aqueous sodium hydroxide solution was used to extract this material from pomegranate seed powder. After filtering away the solid seed material the solution was acidified to pH=4 by addition of 1 N HCl. A small amount of solid developed, which was filtered with some difficulties.
The extracts in Tables 2 and 3, prepared from 70:30 methanol/water, were tested for their ability to inhibit tyrosinase at concentrations of 1.0 mg/mL, 0.1 mg/mL, 0.01 mg/mL, and in some cases 0.001 mg/mL. For comparison several other known tyrosinase inhibitors including kojic acid, alpha-arbutin, beta-arbutin, hydroquinone, and quercetin were tested. Kojic acid is often used in tyrosinase inhibition studies as a benchmark inhibitor for comparison with other inhibitors. I included beta-arbutin and hydroquinone due to their relevance in skin whitening applications. Additionally, several commercial skin whitening agents were also tested. These included a product called Radian Skin from BASF, and an arbutin material sold by the company Presperse. […] Even highly dilute samples of ellagic acid were not sufficiently soluble. […] Finally, a mixture of red raspberry and tomato extracts (FIG. 10) was tested to look for possible synergistic effects in mixtures on two quite different materials. […]

In data set [2] the test system is tyrosinase enzyme (from mushroom). The data set can be described thus: Tyrosinase inhibition assay (L-DOPA to dopachrome, absorbance at 475 nm). Format: biochemical. The note with it: 0.001-1 mg/mL, FIGS. 11-12. On the procedure:
Extracts were tested for their ability to inhibit the enzyme tyrosinase. This enzyme catalyzes the air oxidation of L-DOPA (colorless) to the compound dopachrome, which is a highly colored intermediate in the production of melanin. The dopachrome molecule absorbs strongly at 475 nm. So, measuring the rate of change of absorption at this wavelength using UV/visible spectroscopy can easily assess the enzyme's activity. The tyrosinase enzyme (from mushroom) was purchased from Sigma-Aldrich as a lyophilized powder with an activity of 5771 units per mg of solid (a unit of activity is defined as the rate at which the enzyme catalyzes the reaction of a standard substrate at a standard concentration). […] Next, the enzyme solution was added (500 μL), the cuvette was covered with a piece of Parafilm and inverted twice to thoroughly mix the solutions, and immediately after the cuvette was placed in a UV/visible spectrometer and absorbance was measured at 475 nm every second for 60 seconds. The slope of the line formed by graphing change in absorbance versus time gave the rate in units of AA/second. […] Percentage inhibition values were calculated by taking the rate of the blank run with no inhibitor minus the rate of the inhibited sample and then dividing that value by the blank rate and multiplying by 100. […]

The values that follow come from patent US11931451B2, “Skin lightening compounds from fruit seed extracts” (WiSys Technology Foundation, Inc., priority 2016, dated 2024).

Consider `O=c1oc2c(O)c(O)cc3c(=O)oc4c(O)c(O)cc1c4c23` [ellagic acid], for which the “solubility (medium not stated)” value in data set [1] is listed as “highly insoluble”. The results for the solubility in water result in data set [1] (high pH) and in data set [1] (neutral pH) were “very water soluble” and “only slightly soluble”, respectively. The “solubility in the enzyme assay” value in data set [1] (tyrosinase assay medium) is “highly insoluble”.
Take `O=c1cc(CO)occ1O` [kojic acid]: the “tyrosinase inhibition strength (in words, from dose-response curves)” value in data set [2] is “strongest inhibitor”.
Turning to `O=c1c(O)c(-c2ccc(O)c(O)c2)oc2cc(O)cc(O)c12` [quercetin], the “tyrosinase inhibition strength (in words, from dose-response curves)” value in data set [2] is “considerably more potent than the others”.
